In brackets after ≈: the same amount, converted by molar mass. Activity calls are given as the source filed them. No cut-off for these calls is given here.

For series [1], the system named is HeLa. The series is described as follows: Induction of apoptosis in human HeLa cells assessed as ATP level at 0.5 uM after 48 hrs by luminometric analysis. The class given is functional.
Series [2] has as its system SK-BR-3. The experiment in a line: Induction of apoptosis in human SKBR3 cells assessed as DNA fragmentation at 1 uM after 72 hrs by acridine orange staining. The class given is functional.
The test system of series [3] is HeLa. The series is described as follows: Induction of apoptosis in human HeLa cells assessed as ATP level at 1 uM after 72 hrs by acridine orange staining. The class given is functional.
Series [4] can be described thus: Induction of apoptosis in mouse MMTV-Wnt-1 cells assessed as cell viability after 72 hrs by DAPI staining based cell counting. The class given is functional.
Series [5] relates to HT-29. The series is described as follows: Induction of apoptosis in human HT-29 cells assessed as decrease in ATP level at 10 uM after 72 hrs by luminescence assay. Format: functional. Also on record: scale not given: the % may be the effect or the level left.
Series [6] deals with A549. The series is described as follows: Induction of apoptosis in human A549 cells assessed as decrease in ATP level at 10 uM after 72 hrs by luminescence assay. The class given is functional, cell-based.
Series [7] deals with PC-3. The experiment in a line: Induction of apoptosis in human PC3 cells assessed as decrease in ATP level at 10 uM after 72 hrs by luminescence assay. Format: functional, cell-based.
Series [8] has as its system A549. The series is described as follows: Induction of apoptosis in human A549 cells assessed as decrease in ATP level after 72 hrs by luminescence assay. Format: functional, cell-based.
Series [9] deals with PC-3. The experiment in a line: Induction of apoptosis in human PC3 cells assessed as decrease in ATP level after 72 hrs by luminescence assay. The class given is functional, cell-based.
For series [10], the system named is HT-29. The experiment in a line: Induction of apoptosis in human HT-29 cells assessed as decrease in ATP level at 10 uM after 72 hrs by luminescence assay relative to control. Format: functional. Also on record: scale not given: the % may be the effect or the level left.
Series [11] relates to HT-29. The experiment in a line: Induction of apoptosis in human HT-29 cells assessed as decrease in ATP level after 72 hrs by luminescence assay. Format: functional, cell-based.
The test system of series [12] is A549. The series is described as follows: Induction of apoptosis in human A549 cells assessed as decrease in ATP level at 5 uM after 72 hrs by luminescence assay. Set-up: scale not given: the % may be the effect or the level left. Format: functional.
Series [13] relates to PC-3. The experiment in a line: Induction of apoptosis in human PC3 cells assessed as decrease in ATP level at 5 uM after 72 hrs by luminescence assay. Format: functional. Set-up: scale not given: the % may be the effect or the level left.
Series [14] concerns HT-29. The experiment in a line: Induction of apoptosis in human HT-29 cells assessed as decrease in ATP level at 5 uM after 72 hrs by luminescence assay. Format: functional. Set-up: scale not given: the % may be the effect or the level left.
Series [15] has as its system KG-1. The experiment in a line: Growth inhibition in human KG1 cells expressing p53 gene at 1 uM after 48 hrs by MTT assay. The following applies: KG-1, 48 h, read-out: GI. Format: functional. (In general: Tetrazolium assays rely on reduction of a dye to a coloured formazan, in cell work by metabolically active cells.)
Series [16] has as its system KG-1. The series is described as follows: Growth inhibition in human KG1 cells expressing p53 gene at 5 uM after 48 hrs by MTT assay. The class given is functional. Particulars: KG-1, 48 h, read-out: GI.
Series [17] has as its system KG-1. The series is described as follows: Induction of apoptosis in human KG1 cells expressing p53 gene assessed as DNA fragmentation at 1 uM after 48 hrs by acridine orange staining method. Format: functional.
The test system of series [18] is KG-1. The series is described as follows: Induction of apoptosis in human KG1 cells assessed as DNA fragmentation at 5 uM after 48 hrs by acridine orange staining method. The class given is functional.
A short description of series [19]: Aqueous solubility of the compound in PBS at pH 7.2 by UV spectrophotometric analysis. The class given is physicochemical. The following applies: PBS, read-out: solubility.
Series [20] can be described thus: Aqueous solubility of the compound in water at pH 5 by UV spectrophotometric analysis. Format: physicochemical.
Series [21] concerns KG-1. The series is described as follows: Induction of apoptosis in human KG1 cells expressing p53 gene assessed as DNA fragmentation at 0.1 to 1 uM after 48 hrs by acridine orange staining method. The class given is functional, cell-based.
The test system of series [22] is KG-1. The series is described as follows: Growth inhibition in human KG1 cells expressing p53 gene at 0.1 to 1 uM after 48 hrs by MTT assay. The class given is functional, cell-based.
Series [23] has as its system MDA-MB-231. The experiment in a line: Growth inhibition of retinoid-resistant human MDA-MB-231 cells expressing p53 and ERbeta gene at 0.1 to 1 uM by MTT assay. The following applies: TDE = time-dependent effect. The class given is functional, cell-based.
Series [24] deals with MDA-MB-231. The series is described as follows: Growth inhibition of retinoid-resistant human MDA-MB-231 cells expressing p53 and ERbeta gene after 48 hrs by MTT assay. Format: functional, cell-based.
Series [25] concerns MDA-MB-231. The series is described as follows: Induction of apoptosis in retinoid-resistant human MDA-MB-231 cells expressing p53 and ERbeta gene assessed as DNA fragmentation at 0.1 to 1 uM by acridine orange staining method. Particulars: TDE = time-dependent effect. The class given is functional, cell-based.
The test system of series [26] is MDA-MB-231. The series is described as follows: Induction of apoptosis in retinoid-resistant human MDA-MB-231 cells expressing p53 and ERbeta gene assessed as DNA fragmentation after 48 hrs by acridine orange staining method. The class given is functional, cell-based.
Series [27] concerns MDA-MB-231. The series is described as follows: Growth inhibition of retinoid-resistant human MDA-MB-231 cells expressing p53 and ERbeta gene at 1 uM after 24 hrs by MTT assay. Format: functional. Particulars: MDA-MB-231, 24 h, read-out: GI.
The subject of series [28] is MDA-MB-231. The experiment in a line: Growth inhibition of retinoid-resistant human MDA-MB-231 cells expressing p53 and ERbeta gene at 1 uM after 48 hrs by MTT assay. Format: functional. The following applies: MDA-MB-231, 48 h, read-out: GI.
In series [29] the test system is MDA-MB-231. The experiment in a line: Induction of apoptosis in retinoid-resistant human MDA-MB-231 cells expressing p53 and ERbeta gene assessed as DNA fragmentation at 1 uM after 24 hrs by acridine orange staining method. Format: functional.
In series [30] the test system is MDA-MB-231. The experiment in a line: Induction of apoptosis in retinoid-resistant human MDA-MB-231 cells expressing p53 and ERbeta gene assessed as DNA fragmentation at 1 uM after 48 hrs by acridine orange staining method. The class given is functional.
Series [31] concerns SK-BR-3. The series is described as follows: Induction of apoptosis in estrogen receptor-deficient human SKBR3 cells assessed as DNA fragmentation at 0.5 uM by acridine orange staining. Format: functional, cell-based. The following applies: TDE = time-dependent effect.
In series [32] the test system is HeLa. The series is described as follows: Induction of apoptosis in human HeLa cells assessed as ATP level at 0.5 uM by luminometric analysis. Format: functional, cell-based. Particulars: TDE = time-dependent effect.
The test system of series [33] is SK-BR-3. The series is described as follows: Induction of apoptosis in estrogen receptor-deficient human SKBR3 cells assessed as DNA fragmentation at 0.5 uM after 48 hrs by acridine orange staining. The class given is functional.
The test system of series [34] is HT-29. The experiment in a line: Growth inhibition of ERalpha-negative and ERbeta-positive human HT-29 cells at 10 uM after 72 hrs in presence of 10% FCS. Format: functional. Particulars: HT-29, 72 h, read-out: GI.
Series [35] deals with A549. The series is described as follows: Growth inhibition of ERalpha-negative and ERbeta-positive human A549 cells at 10 uM after 72 hrs. The class given is functional. Particulars: A549, 72 h, read-out: GI.
Series [36] relates to HeLa. The series is described as follows: Growth inhibition of human HeLa cells at 1 uM after 96 hrs by MTT assay in presence of 5% serum. The class given is functional. The following applies: read-out: GI.
Series [37] deals with HeLa. The experiment in a line: Induction of apoptosis in human HeLa cells plated on serum free media for 24 hrs assessed as caspase 3 cleavage at 10 uM after 12 hrs. The class given is functional.
The test system of series [38] is SK-BR-3. The series is described as follows: Growth inhibition of estrogen receptor-deficient human SKBR3 cells at 1 uM after 144 hrs by MTT assay relative to control in presence of 5% serum. Format: functional. The following applies: SK-BR-3, 144 h, read-out: GI.
The test system of series [39] is SK-BR-3. The experiment in a line: Growth inhibition of estrogen receptor-deficient human SKBR3 cells at 1 uM after 216 hrs by MTT assay relative to control in presence of 5% serum. The class given is functional. Particulars: SK-BR-3, 216 h, read-out: GI.

For `O=C(O)/C=C/c1ccc(-c2ccc(O)c(C34CC5CC(CC(C5)C3)C4)c2)nc1`, the Activity in the series with HeLa [1] was more than 60%; in the series with SK-BR-3 [2] it was 15%; in the series with HeLa [3], 2.6%; in the series on HT-29 [5] it was “>=40%”; with A549 [8] it was “Dose-dependent effect”; in the series on PC-3 [9], “Dose-dependent effect”. The Activity with HT-29 [10] was less than 60%; in the series on HT-29 [11] it was “Dose-dependent effect”; in the series with A549 [12] it was 30%; with PC-3 [13] it was 30%; in the series on HT-29 [14], 30%; in the series with KG-1 [17], 68%. Also, the Activity in the series on KG-1 [18] is 84%; in the series on MDA-MB-231 [25], “tde”; with MDA-MB-231 [26], “Dose-dependent effect”; in the series on MDA-MB-231 [29], 38%; with MDA-MB-231 [30] it was 82%; in the series with SK-BR-3 [31], “tde”. Besides, the results for the Activity result with HeLa [32] and with SK-BR-3 [33] were “tde” and 1.9%, respectively. Moreover, the IC50 (usually the midpoint of a concentration-inhibition curve) in series [4] was determined as 19 nM. The outcome in the series with A549 [6], in the series on PC-3 [7] and with KG-1 [21] was Active. Also, the inhibition of growth at 1 µM in the series with KG-1 [15] was determined as 85%; in the series with MDA-MB-231 [27], 86%; in the series with MDA-MB-231 [28], 85%. Besides, in the series on KG-1 [16], the inhibition of growth at 5 µM is 90%. Also, the solubility (as a rule, how much of the substance goes into solution per volume) came to 14 µM (≈ 5.26 µg/mL) in [19] and 7 µM (≈ 2.63 µg/mL) in [20]. The “growth inhibition (GI)” value in the series on KG-1 [22] is “Active”. The “growth inhibition (GI)” value in the series on MDA-MB-231 [23] is “tde”; in the series with MDA-MB-231 [24] it was “Dose-dependent effect”.
As for `CC1=C(/C=C/C(C)=C/C=C/C(C)=C/C(=O)O)C(C)(C)CCC1` [TRETINOIN], the inhibition of growth at 10 µM in the series on HT-29 [34] is 8%; in the series on A549 [35] it was 5%. Besides, the inhibition of growth at 1 µM in the series on HeLa [36] turned out to be 71%; with SK-BR-3 [38], 36%; with SK-BR-3 [39] it was 24%. Further, the Activity with HeLa [37] worked out at 87%.

(Values after ChEMBL document CHEMBL1811878, “Heteroatom-substituted analogues of orphan nuclear receptor small heterodimer partner ligand and apoptosis inducer (E)-4-[3-(1-Adamantyl)-4-hydroxyphenyl]-3-chlorocinnamic acid” (J Med Chem, 2011).)
